According to the NIST ThermoML archive (doi:10.1021/acs.jced.8b00681):

Assay: mn = molality of the nth substance listed, in mol/kg
Conditions: 100 kPa, Liquid, Frequency=2 MHz, Linear variable-path acoustic interferometer

OC[C@H]1O[C@H](OC[C@H]2O[C@H](O[C@]3(CO)O[C@H](CO)[C@@H](O)[C@@H]3O)[C@H](O)[C@@H](O)[C@@H]2O)[C@H](O)[C@@H](O)[C@H]1O [D-raffinose] + O
speed of sound [m/s]
Conditions | m1 = 0.05849 | m1 = 0.0723 | m1 = 0.087 | m1 = 0.1083 | m1 = 0.1225 | m1 = 0.143
288.15 K | 1478.1 | 1481 | 1484.1 | 1488.6 | 1491.6 | 1496
298.15 K | 1509 | 1512 | 1515.1 | 1519.7 | 1522.7 | 1527.1
308.15 K | 1531.9 | 1534.8 | 1537.9 | 1542.3 | 1545.3 | 1549.7
318.15 K | 1548.3 | 1551.1 | 1554.1 | 1558.5 | 1561.5 | 1565.8

O=C[C@H](O)[C@@H](O)[C@H](O)[C@H](O)CO [D-glucose] + O
speed of sound [m/s]
Conditions | m1 = 0.054 | m1 = 0.07085 | m1 = 0.09905 | m1 = 0.1196 | m1 = 0.1221 | m1 = 0.1388
288.15 K | – | 1470.8 | 1472.7 | 1474.2 | 1474.3 | 1475.5
298.15 K | – | 1501.1 | 1502.9 | 1504.2 | 1504.3 | 1505.3
308.15 K | 1523.1 | 1524.7 | 1527.4 | 1529.3 | 1529.5 | 1531.1
318.15 K | – | 1540.7 | 1543.2 | 1545 | 1545.2 | 1546.6

N.O=P(O)(O)O [ammonium dihydrogen phosphate] + O
speed of sound [m/s]
Conditions | 288.15 K | 298.15 K | 308.15 K | 318.15 K
m1 = 0.5 | 1506.4 | 1534.2 | 1555.1 | 1570.8
m1 = 1 | 1554.5 | 1579.6 | 1598.1 | 1610.2
m1 = 1.5 | 1609.2 | 1629.9 | 1645.1 | 1654.4
m1 = 2 | 1672.6 | 1686.2 | 1697.2 | 1703.1

O=C[C@H](O)[C@H](O)[C@H](O)CO [D-ribose] + O
speed of sound [m/s]
Conditions | m1 = 0.04514 | m1 = 0.06075 | m1 = 0.08352 | m1 = 0.112 | m1 = 0.1348 | m1 = 0.1523
288.15 K | 1468.7 | 1469.7 | 1471.1 | 1472.9 | 1474.3 | 1475.4
298.15 K | 1499.1 | 1499.9 | 1501 | 1502.5 | 1503.6 | 1504.5
308.15 K | 1522 | 1522.7 | 1523.7 | 1525.1 | 1526.1 | 1526.9
318.15 K | 1538.3 | 1538.9 | 1539.9 | 1541 | 1542 | 1542.8
